This assay addresses PD-1/PD-L1 (Homo sapiens, UniProt Q9NZQ7). As to the kind of experiment: TR-FRET PD-1/PD-L1 binding inhibition at the molecular level (free proteins). Particulars: Tag1-PD-L1 and Tag2-PD-1 proteins, twelve concentrations from 200 nM, 2 hours at room temperature, read-out: FRET assay (IC50). The method, boiled down:
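HTRF read-out at 665/620 nm after 2 h at room temperature. Detection used anti-Tag1 Eu cryptate plus anti-Tag2 XL665 antibodies. Tagged PD-L1 and PD-1 proteins were pre-mixed with compound across twelve […] 1:2 dilutions starting at 200 nM.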

PD-1/PD-L1, sequence (Q9NZQ7 19-238 limits assumed): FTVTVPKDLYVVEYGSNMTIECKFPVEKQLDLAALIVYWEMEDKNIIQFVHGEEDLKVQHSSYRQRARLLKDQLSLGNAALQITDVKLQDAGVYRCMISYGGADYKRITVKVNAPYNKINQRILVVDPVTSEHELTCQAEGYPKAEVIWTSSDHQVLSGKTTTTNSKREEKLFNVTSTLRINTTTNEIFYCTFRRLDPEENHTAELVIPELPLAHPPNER

Take `COc1cc(C(=O)Nc2cccc(-c3cccc(NC(=O)c4cc5n(n4)CCCC5NCC(=O)O)c3Cl)c2Cl)cc(F)c1CN1CC[C@@H](C(=O)O)C1` (stereo partly drawn) [Compound 193, (3R)-1-(4-((3'-(4-((carboxymethyl)amino)-4,5,6,7-tetrahydropyrazolo[1,5-a]pyridine-2-carboxamido)-2,2'-dichloro-[1,1'-biphenyl]-3-yl)carbamoyl)-2-fluoro-6-methoxybenzyl)pyrrolidine-3-carboxylic acid]: the IC50 is less than 0.01 µM.

Turning to `COc1cc(C(=O)Nc2cccc(-c3cccc(NC(=O)c4cc5n(n4)CCCC5N4CC[C@@H](C(=O)O)C4)c3Cl)c2Cl)cc(F)c1CNCCO` (stereo partly drawn) [Compound 194, (3R)-1-(2-((2,2'-dichloro-3'-(3-fluoro-4-(((2-hydroxyethyl)amino)methyl)-5-methoxybenzamido)-[1,1'-biphenyl]-3-yl)carbamoyl)-4,5,6,7-tetrahydropyrazolo[1,5-a]pyridin-4-yl)pyrrolidine-3-carboxylic acid], the IC50 is less than 0.01 µM.

Turning to `COc1cc(C(=O)Nc2cccc(-c3cccc(NC(=O)c4cc5n(n4)CCCC5N4CC[C@@H](C(=O)O)C4)c3Cl)c2Cl)cc(F)c1CNCC(=O)O` (stereo partly drawn) [Compound 195, (3R)-1-(2-((3'-(4-(((carboxymethyl)amino)methyl)-3-fluoro-5-methoxybenzamido)-2,2'-dichloro-[1,1'-biphenyl]-3-yl)carbamoyl)-4,5,6,7-tetrahydropyrazolo[1,5-a]pyridin-4-yl)pyrrolidine-3-carboxylic acid], the half-maximal inhibitory concentration (IC50) was less than 0.01 µM.

Regarding `COc1cc(C(=O)Nc2cccc(-c3cccc(NC(=O)c4cc5n(n4)CCCC5N4CC[C@@H](C(=O)O)C4)c3Cl)c2Cl)cc(F)c1CN1CC[C@@H](O)C1` (stereo partly drawn) [Compound 196, (3R)-1-(2-((2,2'-dichloro-3'-(3-fluoro-4-(((R)-3-hydroxypyrrolidin-1-yl)methyl)-5-methoxybenzamido)-[1,1'-biphenyl]-3-yl)carbamoyl)-4,5,6,7-tetrahydropyrazolo[1,5-a]pyridin-4-yl)pyrrolidine-3-carboxylic acid], the IC50 was less than 0.01 µM.

For `COc1cc(C(=O)Nc2cccc(-c3cccc(NC(=O)c4cc5n(n4)CCCC5N4CC[C@@H](C(=O)O)C4)c3Cl)c2Cl)cc(F)c1CN1CC[C@@H](C(=O)O)C1` (stereo partly drawn) [Compound 197, (3R)-1-(4-((3'-(4-((R)-3-carboxypyrrolidin-1-yl)-4,5,6,7-tetrahydropyrazolo[1,5-a]pyridine-2-carboxamido)-2,2'-dichloro-[1,1'-biphenyl]-3-yl)carbamoyl)-2-fluoro-6-methoxybenzyl)pyrrolidine-3-carboxylic acid], the IC50 was 0.01 to 0.1 µM.

Regarding `O=C(O)CNC1CCCn2nc(C(=O)Nc3cccc(-c4cccc(NC(=O)c5ccc(CNCCO)c(F)n5)c4Cl)c3Cl)cc21` (centres unmarked) [Compound 198, 2-((2-((2,2'-dichloro-3'-(6-fluoro-5-(((2-hydroxyethyl)amino)methyl)picolinamido)-[1,1'-biphenyl]-3-yl)carbamoyl)-4,5,6,7-tetrahydropyrazolo[1,5-a]pyridin-4-yl)amino)acetic acid], the IC50 is less than 0.01 µM.

As for `O=C(Nc1cccc(-c2cccc(NC(=O)c3cc4n(n3)CCCC4N3CC[C@@H](C(=O)O)C3)c2Cl)c1Cl)c1ccc(CNCCO)c(F)n1` (stereo partly drawn) [Compound 199, (3R)-1-(2-((2,2'-dichloro-3'-(6-fluoro-5-(((2-hydroxyethyl)amino)methyl)picolinamido)-[1,1'-biphenyl]-3-yl)carbamoyl)-4,5,6,7-tetrahydropyrazolo[1,5-a]pyridin-4-yl)pyrrolidine-3-carboxylic acid], the IC50 was less than 0.01 µM.

For the compound `O=C(O)CNC1CCCn2nc(C(=O)Nc3cccc(-c4cccc(NC(=O)c5ncc(CNCCO)cc5F)c4Cl)c3Cl)cc21` (centres unmarked) [Compound 200, 2-((2-((2,2'-dichloro-3'-(3-fluoro-5-(((2-hydroxyethyl)amino)methyl)picolinamido)-[1,1'-biphenyl]-3-yl)carbamoyl)-4,5,6,7-tetrahydropyrazolo[1,5-a]pyridin-4-yl)amino)acetic acid], the IC50 is less than 0.01 µM.

On to `O=C(Nc1cccc(-c2cccc(NC(=O)c3ncc(CNCCO)cc3F)c2Cl)c1Cl)c1cc2n(n1)CCCC2N1CC[C@@H](C(=O)O)C1` (stereo partly drawn) [Compound 201, (3R)-1-(2-((2,2'-dichloro-3'-(3-fluoro-5-(((2-hydroxyethyl)amino)methyl)picolinamido)-[1,1'-biphenyl]-3-yl)carbamoyl)-4,5,6,7-tetrahydropyrazolo[1,5-a]pyridin-4-yl)pyrrolidine-3-carboxylic acid], for which the IC50 is less than 0.01 µM.

As to `O=C(O)CNC1CCCn2nc(C(=O)Nc3cccc(-c4cccc(NC(=O)c5ccc(CN6CC[C@@H](O)C6)c(F)n5)c4Cl)c3Cl)cc21` (stereo partly drawn) [Compound 202, 2-((2-((2,2'-dichloro-3'-(6-fluoro-5-(((R)-3-hydroxypyrrolidin-1-yl)methyl)picolinamido)-[1,1'-biphenyl]-3-yl)carbamoyl)-4,5,6,7-tetrahydropyrazolo[1,5-a]pyridin-4-yl)amino)acetic acid], the IC50 is less than 0.01 µM.

For `O=C(Nc1cccc(-c2cccc(NC(=O)c3cc4n(n3)CCCC4N3CC[C@@H](C(=O)O)C3)c2Cl)c1Cl)c1ccc(CN2CC[C@@H](O)C2)c(F)n1` (stereo partly drawn) [Compound 203, (3R)-1-(2-((2,2'-dichloro-3'-(6-fluoro-5-(((R)-3-hydroxypyrrolidin-1-yl)methyl)picolinamido)-[1,1'-biphenyl]-3-yl)carbamoyl)-4,5,6,7-tetrahydropyrazolo[1,5-a]pyridin-4-yl)pyrrolidine-3-carboxylic acid], the IC50 is less than 0.01 µM.

For the compound `O=C(O)CNC1CCCn2nc(C(=O)Nc3cccc(-c4cccc(NC(=O)c5ncc(CN6CC[C@@H](O)C6)cc5F)c4Cl)c3Cl)cc21` (stereo partly drawn) [Compound 204, 2-((2-((2,2'-dichloro-3'-(3-fluoro-5-(((R)-3-hydroxypyrrolidin-1-yl)methyl)picolinamido)-[1,1'-biphenyl]-3-yl)carbamoyl)-4,5,6,7-tetrahydropyrazolo[1,5-a]pyridin-4-yl)amino)acetic acid], the IC50 is less than 0.01 µM.

Regarding `O=C(Nc1cccc(-c2cccc(NC(=O)c3ncc(CN4CC[C@@H](O)C4)cc3F)c2Cl)c1Cl)c1cc2n(n1)CCCC2N1CC[C@@H](C(=O)O)C1` (stereo partly drawn) [Compound 205, (3R)-1-(2-((2,2'-dichloro-3'-(3-fluoro-5-(((R)-3-hydroxypyrrolidin-1-yl)methyl)picolinamido)-[1,1'-biphenyl]-3-yl)carbamoyl)-4,5,6,7-tetrahydropyrazolo[1,5-a]pyridin-4-yl)pyrrolidine-3-carboxylic acid], the IC50 is less than 0.01 µM.

On to `O=C(Nc1cccc(-c2cccc(Nc3nccc4cc(CN5CC[C@@H](O)C5)cnc34)c2Cl)c1Cl)c1cc2n(n1)CCCC2N1CC[C@@H](C(=O)O)C1` (stereo partly drawn) [Compound 228, (3R)-1-(2-((2,2'-dichloro-3'-((3-(((R)-3-hydroxypyrrolidin-1-yl)methyl)-1,7-naphthyridin-8-yl)amino)-[1,1'-biphenyl]-3-yl)carbamoyl)-4,5,6,7-tetrahydropyrazolo[1,5-a]pyridin-4-yl)pyrrolidine-3-carboxylic acid], for which the IC50 fell in the range of 0.01 to 0.1 µM.

The values are drawn from patent publication EP4755888A1 (ILAb Co., Ltd., priority 2023, dated 2025).
